Earlier results in US20080241273A1, “MASTIC GUM COMPOSITION FOR USE AS A DIETARY SUPPLEMENT IN HUMANS AND ANIMALS” (INTACT ENTERPRISES, INC., priority 2005, published 2008).

Experiments:
[1] = dogs
[2] = hydrochloric acid titrated to a pH between 6 and 7
[3] = 6 mg/kg daily orally for up to 60 days
[4] = infusion, patients with lowered ionized magnesium
[5] = type 1 and type 2 diabetes
[6] = healthy individuals, oral
[7] = oral, six weeks, daily dose of 15 mmol

C[C@H](O)C(=O)[O-].C[C@H](O)C(=O)[O-].O.O.[Mg+2] [magnesium L-lactate dihydrate]
bioavailability under decreased acidity [1]: did not impair

[O]=[Mg] [magnesium oxide]
reprecipitation [2]: did not occur

[Mg+2] [magnesium]
serum concentrations of calcium, magnesium, parathyroid hormone, calcitriol, osteocalcin [3]: increased significantly | relief of acute migraine [4]: rapid and sustained relief

O=S(=O)([O-])[O-].[O]=[V+2] [vanadyl sulfate]
blood sugar [5]: reduced | insulin sensitivity [5]: improved

magnesium citrate
in vivo absorption (rise in urinary magnesium levels) [6]: absorbed to a much greater extent than the oxide | reprecipitation [2]: did not occur

magnesium lactate citrate
bioavailability [7]: satisfactory
